The values that follow are results of earlier work, collected in the CATMoS acute toxicity set (Mansouri et al. 2021).

“And” between values parts separate entries of the source, which are not always exact repeats. Equal entries are not always repeated.

The data set is described as follows: rat acute oral toxicity. Particulars: in vivo. From the text: […]The data set underlying the modeling effort for this project was initially compiled by NICEATM and U.S. EPA’s CCTE. Briefly, LD50 data were collected from rat acute oral systemic toxicity tests, including limit tests, ranges/confidence intervals, and discrete LD50 values. The full data set included 21,200 LD50 entries for 15,688 substances. […] Data were reviewed to ensure that LD50 values with obvious errors in the extracted data such as unit conversion errors (e.g., comma and decimal separator misplacements) were either fixed or removed. After this review, 16,209 LD50 values remained. Many of the chemicals represented had multiple LD50 entries, requiring that a single representative value per Chemical Abstracts Service Registry Number (CASRN) identifier be defined to facilitate modeling efforts. Based on ATWG feedback and to define the representative LD50 as a protective value while accounting for the distribution across multiple LD50s, the median of the lowest quartile was computed using only discrete LD50 values (omitting limit test data and range and confidence interval data). A detailed summary of the data compilation is available online on the NICEATM webpage dedicated to the collaborative modeling project (NTP 2020).
[…][…] For categorical designations, limit test and range/confidence interval LD50 data were integrated wherever possible. As such, the number of chemicals with end point values/calls varies across the modeling end points (Table 3) based on whether chemicals had representative LD50 values and/or other data. If a chemical had both, the representative value was used to determine categorical calls rather than limit test data. Some data were useable only for certain end points and categories depending on the thresholds. For example, ranges that spanned multiple hazard categories were considered only for the binary (very toxic/nontoxic) end points and omitted from rendering a determination for hazard category assignment.
[…]The final data set comprising 11,992 chemicals was split into training and evaluation sets […], respectively. This process was performed semirandomly by ordering chemicals based on the five end points (categorical and continuous LD50 values) and partitioning every fourth record into the evaluation set accordingly. This approach was taken to ensure an equivalent distribution of the LD50 values and the different hazard categories between the training and the evaluation sets without supervised sampling of the chemicals based on structures (Figure 1A). The sources of the chemical structures were also kept equivalent between the two sets, with chemical structures obtained from DSSTox, being the highest quality, representing over 75% of each set (Figure 1B).
Broadly, the LD50 is the dose at which mortality reaches 50%. Consider `Nc1ncnc2c1ncn2[C@]1(CO)O[C@H](CO)[C@@H](O)[C@H]1O`, for which the LD50 was 10000 mg/kg. Regarding `C=CC(=O)NCOCCCC`, the LD50 is 1030 mg/kg. Turning to `CC(C)CNC(=O)CF`, the LD50 is 42 mg/kg.

In the case of `Cc1ccc([N+](=O)[O-])cc1N`, the median lethal dose (LD50) was 574 mg/kg. In the case of `NC(=O)c1cc(C(=O)CBr)ccc1O`, the LD50 was 800 mg/kg.

Take `N#CCC[P+](CCC#N)(CCC#N)CC[P+](CCC#N)(CCC#N)CCC#N`: the LD50 is 10000 mg/kg. For the compound `CCOP(=S)(OCC)Oc1cnc2ccccc2n1`, the LD50 is 26 mg/kg.

Regarding `OC(CCN1CCCCC1)(c1ccccc1)C1CCCC1` (centres undefined), the LD50 was 628 mg/kg. Take `COc1ccc([C@@H]2Sc3ccccc3N(CCN(C)C)C(=O)[C@@H]2OC(C)=O)cc1`: the LD50 was 560 mg/kg. On to `O=c1ccc2ccc3occc3c2o1`, for which the LD50 is 322 mg/kg. For `COc1cc(NC(=O)CC(C)=O)c(OC)cc1Cl`, the LD50 was 850 mg/kg. Turning to `CN(C)c1ccc(C=C2C(=O)N=C3c4ccccc4N=CN23)cc1`, the LD50 was 355 mg/kg.

Regarding `CC(=O)c1ccccn1`, the LD50 was 2280 mg/kg.

Consider `CCC(C)(O)C#CC(C)(O)CC` (centres undefined), for which the LD50 is 1400 mg/kg. Take `Cn1c(=O)c2c(ncn2CCOC(=O)C(C)(C)Oc2ccc(Cl)cc2)n(C)c1=O`: the LD50 was 17000 mg/kg. On to `Fc1c(Br)c(F)c2nc(C(F)(F)F)[nH]c2c1Br`, for which the LD50 was 7.23 mg/kg. In the case of `CCOC(=O)CC(=O)CCl`, the LD50 was 200 mg/kg. For `CCN(CC)CCc1nc(-c2ccccc2)no1`, the LD50 was 1650 mg/kg. With `C=CC(C)(O)CCC=C(C)C` (centres undefined), the LD50 is 2790 mg/kg. Turning to `Fc1cc(F)c2nc(C(F)(F)F)[nH]c2c1F`, the LD50 was 2.29 mg/kg. Take `CC(CN(C)C)C(C)(O)Cc1ccc(Cl)cc1` (centres undefined): the LD50 is 802 mg/kg.

Take `CC(=O)Cl`: the LD50 was 910 mg/kg.

Regarding `CCN(CC)c1nc(NC(C)C)nc(OC)n1`, the LD50 is 885 mg/kg. As for `O=CC1C(=O)N(c2ccccc2)N=C1c1ccccc1` (centres undefined), the LD50 is 789 mg/kg. Take `CNC(=S)NCCSCc1nc[nH]c1C`: the LD50 is 1490 mg/kg. Consider `C=CC(=O)OCC(CC)(COC(=O)C=C)COC(=O)C=C`, for which the LD50 was 5190 mg/kg. As for `CC1CCCCN1CCCOC(=O)c1ccc(OC2CCCCC2)cc1` (centres undefined), the LD50 is 2340 mg/kg. As for `CCOC(C)=O`, the LD50 was 5620 mg/kg. With `O=C(O)c1cc(-c2ccc(F)cc2F)ccc1O`, the LD50 is 392 mg/kg. With `NC(=O)N/N=C/c1ccc([N+](=O)[O-])o1`, the LD50 is 590 mg/kg. Take `Cl[C@H]1[C@H](Cl)[C@@H](Cl)[C@H](Cl)[C@H](Cl)[C@H]1Cl` (racemic): the LD50 is 177 mg/kg.

As to `Cc1cccc(C)c1N`, the LD50 was 2040 mg/kg. As to `Cc1ccccc1N1C(=O)C=CC1=O`, the LD50 was 250 mg/kg. On to `CCSc1nc(NC(C)C)nc(NC(C)C)n1`, for which the LD50 was 3900 mg/kg. Regarding `CC(CC(=O)O)CC(C)(C)C` (centres undefined), the LD50 is 1160 mg/kg. Turning to `ClC1=C(Cl)[C@]2(Cl)[C@@H]3[C@@H](Cl)[C@H](Cl)[C@@H](Cl)[C@@H]3[C@@]1(Cl)C2(Cl)Cl` (racemic), the LD50 was 500 mg/kg. Regarding `NCCNCCNCc1ccccc1O`, the LD50 was 2300 mg/kg.

In the case of `COc1ccc2c(c1)c(CC(=O)OC(C)c1ccccc1)c(C)n2C(=O)c1ccc(Cl)cc1` (centres undefined), the LD50 is 425 mg/kg. Take `OCCNC1CCCCC1`: the 50% lethal dose (LD50) is 38300 mg/kg. `CCCCC(CC)C(=O)OCCOCCOCCOCCOC(=O)C(CC)CCCC` (centres undefined): the LD50 is 18000 mg/kg. Regarding `c1ccc(C2CC(N3CCCC3)CC(c3ccccc3)C2c2ccccn2)cc1` (centres undefined), the LD50 was 479 mg/kg.

`CCCCCCCCCCCCCCCCOP(=O)([O-])OCC[N+](C)(C)C`: the LD50 is 246 mg/kg.

Regarding `Cc1onc2c(=O)n(C)nc(-c3ccccc3)c12`, the LD50 was 1000 mg/kg.

In the case of `Cc1nn(-c2ccccc2)c(=O)c2noc(C)c12`, the LD50 is 1000 mg/kg. As to `CNC(=O)OCc1cccc(COC(=O)NC)n1`, the LD50 was 1230 mg/kg. Regarding `CC(=O)OC1CC(C)CCC1C(C)C` (centres undefined), the LD50 is 7620 mg/kg.

With `NC(=O)N1c2ccccc2C=Cc2ccccc21`, the LD50 was 1960 mg/kg. With `CCCCC(O)(Cn1cncn1)c1ccc(Cl)cc1Cl` (centres undefined), the LD50 was 2190 mg/kg. In the case of `CCc1cnc(C)cn1`, the LD50 is 900 mg/kg.

With `Nc1nc2ccc(Br)cc2o1`, the LD50 was 500 mg/kg. For the compound `CCC(CC)COCCC(=O)O`, the LD50 is 3730 mg/kg. For `CNC(=O)Oc1cccc2c1OC(C)(C)C2=O`, the LD50 is 295 mg/kg. As for `O=C1NCCCN1Cc1ccc(Cl)c(Cl)c1`, the LD50 was 815 mg/kg. As to `CCCCC(CC)COC(CBr)c1ccc(Cl)c(Cl)c1` (centres undefined), the LD50 is 250 mg/kg.

Take `NCCCOCCOCCO`: the LD50 is 6500 mg/kg. For `Fc1ccc(-c2cccs2)cc1`, the LD50 is 500 mg/kg. On to `CC(C)c1ccc2c(c1)CC[C@H]1[C@](C)(C(=O)O)CCC[C@]21C`, for which the LD50 was 1710 mg/kg. As to `CCCCOC(=O)CCCOc1ccc(Cl)cc1Cl`, the LD50 is 300 mg/kg. Consider `CCCCOCCOCC`, for which the LD50 is 2830 mg/kg.

For the compound `Fc1c(Br)c(Cl)c2nc(C(F)(F)F)[nH]c2c1Br`, the LD50 was 6.28 mg/kg. For the compound `COP(=S)(OC)SC1CSC=CO1` (centres undefined), the LD50 was 100 mg/kg. Consider `CCNCC(O)c1cccc(O)c1` (centres undefined), for which the LD50 is 114 mg/kg. `COc1ccc2c(c1)c1c3n2CCN(C)C3=NCC1`: the LD50 was 1400 mg/kg. With `CC1OCC2C(CO1)C1(Cl)C(Cl)=C(Cl)C2(Cl)C1(Cl)Cl` (centres undefined), the LD50 was 120 mg/kg.

With `CCCCCCCCc1ccc(C(C[n+]2ccccc2)OCCCC)cc1` (centres undefined), the LD50 was 250 mg/kg. Consider `O=[PH](O)c1ccccc1`, for which the LD50 is 1340 mg/kg. Turning to `COC(C)C=O` (centres undefined), the LD50 was 940 mg/kg. `Cc1ccccc1N=C=O`: the LD50 was 1600 mg/kg. Consider `CN=C(O)O/N=C(/C)C(C)(C)[N+](=O)[O-]`, for which the LD50 was 13 mg/kg. With `COc1cc(-c2ccc(N)c(OC)c2)ccc1N`, the LD50 is 1920 mg/kg. For `O=NN1CN2CN(C1)CN(N=O)C2`, the LD50 is 940 mg/kg.

Take `CC1=C(C)C(=O)C(C(CCCCCC(=O)O)c2ccccc2)=C(C)C1=O` (racemic): the LD50 is 3750 mg/kg. In the case of `O=C(Nc1nc(C(F)(F)F)c(Cl)s1)c1cc(C(F)(F)F)cc(C(F)(F)F)c1`, the LD50 was 69 mg/kg. On to `CCOC(N)=O`, for which the LD50 was 1810 mg/kg. For `CCNc1nc(NC(C)C(C)C)nc(SC)n1` (centres undefined), the LD50 is 3000 mg/kg. As to `O=C(OCC1CO1)c1ccccc1` (centres undefined), the LD50 was 1410 mg/kg.

Regarding `COCCOC(=O)CCCCCCCCC(=O)OCCOC`, the LD50 was 4970 mg/kg. As to `COc1cccc(C2(O)CCCCC2CN(C)C)c1` (centres undefined), the LD50 is 228 mg/kg. On to `Cc1ccc(S(=O)(=O)N=C=O)cc1`, for which the LD50 is 2230 mg/kg. For `CC(C)C12CCC(C)(CC1)O2`, the LD50 is 3100 mg/kg.

For `COCCOC`, the LD50 was 5370 mg/kg.

On to `NCCNCCO`, for which the LD50 is 3000 mg/kg. Regarding `ClCCBr`, the LD50 is 64 mg/kg. As for `CCCC(=O)OC1CCC(N2CCCCC2)CC1` (centres undefined), the LD50 is 1910 mg/kg. With `CN(C)C=C1C(=O)N(c2ccccc2)N=C1c1ccccc1`, the LD50 was 890 mg/kg.

With `N/C(CNc1ccc(Cl)cc1)=N/O`, the LD50 is 450 mg/kg. Consider `O=NN(CC(F)(F)F)CC(F)(F)F`, for which the LD50 is 300 mg/kg. For the compound `CCCCCCc1ccc(C(CBr)OCC(CC)CCCC)cc1` (centres undefined), the LD50 was 250 mg/kg. As for `Cc1nc2cnc3ccccc3c2s1`, the LD50 is 900 mg/kg and 950 mg/kg. With `Cc1cn(-c2cc(N)cc(C(F)(F)F)c2)cn1`, the LD50 was 50 mg/kg. Turning to `Oc1cc(O)cc(Sc2cc(O)cc(O)c2)c1`, the LD50 is 4290 mg/kg. In the case of `Nc1c(Br)cc([N+](=O)[O-])cc1[N+](=O)[O-]`, the LD50 was 4100 mg/kg.

With `O=CNC(Nc1ccc(Cl)c(Cl)c1)C(Cl)(Cl)Cl` (centres undefined), the LD50 is 2500 mg/kg.

Take `O=C(CF)NC(=O)Nc1ccccc1`: the LD50 is 25 mg/kg.

As for `CCCNC(=O)C(C)Nc1ccc(OCC)cc1` (centres undefined), the LD50 is 3000 mg/kg.

For `CC1(C)SCN(C(=O)C2(Oc3ccc(Cl)cc3)CCCCC2)C1C(=O)O` (centres undefined), the LD50 was 4350 mg/kg. Turning to `Cc1ncc(CS)c(CO)c1O`, the LD50 was 3000 mg/kg. For the compound `COC(=N)N`, the LD50 was 3700 mg/kg.

Regarding `CC1CC(Cl)CCC1C(=O)OC(C)(C)C` (centres undefined), the LD50 was 4560 mg/kg.

Take `COC(=O)C1=C(C)NC(C)=C(C(=O)OCC(C)C)C1c1ccccc1[N+](=O)[O-]` (centres undefined): the LD50 is 1260 mg/kg. Regarding `Cc1cc(OC(=O)N(C)C)n(-c2ccccc2)n1`, the LD50 is 62 mg/kg. Turning to `COC(=O)Cc1cccc2ccccc12`, the LD50 was 1900 mg/kg. For the compound `O=C(O)C(F)(F)C(F)(F)C(F)(F)C(F)F`, the LD50 is 1760 mg/kg.

`CC[N+](CC)(CC)CC`: the LD50 was 2630 mg/kg. With `CCOC(=O)C=[N+]=[N-]`, the LD50 was 400 mg/kg.

As to `FC(F)(F)c1nc2cc(Cl)c(Cl)cc2[nH]1`, the LD50 is 7.88 mg/kg. For `CCOP(=S)(OCC)Oc1ccc(=O)n(-c2ccccc2)n1`, the LD50 is 424 mg/kg. Consider `CN(C)C=Nc1c(I)cc(I)c(CCC(=O)O)c1I`, for which the LD50 is 2500 mg/kg and 1030 mg/kg. With `CN(C)C(=O)n1c(Br)nc(Br)c1Br`, the median lethal dose (LD50) was 50 mg/kg.
